Key:
Format in all cases: cell-based, human
imDAPs [1] = assay: imDAP expansion: cell morphology, cell number (Vi-cell cytometer), expansion fold, Population Doubling Time
Description: imDAPs were produced according to the method described in CN201910169525.0. The imDAPs (P0) were seeded on VTN-coated plates (1 μg/cm^2) at a density of 1×10^5 cells/cm^2 in the expansion medium (50% DMEM/F12, 50% Neurobasal™ medium, 1% (v/v) Glutamax, 2% (v/v) B27 (50×), 0.2 μM LDN193189, 3 μM CHIR99021, 100 ng/mL FGF8b) in the absence or presence of 5 μM Blebbistatin. In case where Blebbistatin is present, Blebbistatin was either removed 24 hrs after plating or present throughout the culture period. The medium was changed every day for 5 days.
imDAPs were produced according to the method described in CN201910169525.0. The imDAPs (P0) were seeded on VTN-coated plates (1 μg/cm^2) at a density of 1×10^5 cells/cm^2 in the expansion medium (50% DMEM/F12, 50% Neurobasal™ medium, 1% (v/v) Glutamax, 2% (v/v) B27 (50×), 3 μM CHIR99021, 100 ng/mL FGF8b, […]) in the absence or presence of 0.2 μM LDN193189. The medium was changed every day for 5 days.
imDAPs were produced according to the method described in CN201910169525.0. The imDAPs (P0) were seeded on VTN-coated plates (1 μg/cm^2) at a density of 1×10^5 cells/cm^2 in the expansion medium (50% DMEM/F12, 50% Neurobasal™ medium, 1% (v/v) Glutamax, 2% (v/v) B27 (50×), 0.2 μM LDN193189, 3 μM CHIR99021, 100 ng/mL FGF8b, 5 μM Blebbistatin). The medium was changed every day. When imDAPs reach 100% confluence (4-5 days), cells were passaged enzymatically with 1× TrypLE, centrifuged at 250 g for 5 minutes, counted and replaced on new VTN-coated plates (1 μg/cm^2) at a density of 1×10^5 cells/cm^2 in the expansion medium. imDAPs were continuously expanded for 6 passages. At each passage, imDAPs were harvested at an expansion fold 5˜10 (over the initial number of imDAPs plated).
imDAPs were produced according to the method described in CN201910169525.0. The imDAPs (P0) were seeded on DLL4-coated ([…]), VTN-coated (1 μg/cm^2) and DLL4/VTN-coated ([…]) plates at a low density of 1×10^4 cells/cm^2 respectively, and cultured in the expansion medium in the absence or presence of 5 µM SB431542. Medium was replaced every 3rd day until reaching 100% confluence (6 days) for cell collection. The typical cell morphology on day 4 was recorded (FIG. 4A). The cell number of each group was counted by Vi-cell cytometer (FIG. 4B). The cells of each group were stained with Foxa2-PE antibody (BD, #561589), the percentage of Foxa2+ imDAPs were analyzed by flow cytometry (FIG. 4C). The expansion medium used in this example contained the following components: 50% DMEM/F12, 50% Neurobasal™ medium, 1% (v/v) Glutamax, 1% (v/v) B27, 50 μg/ml ascorbic acid, 0.2 μM LDN193189, 100 ng/ml FGF8b, 3 μM CHIR99021 and 10 μM Y27632.
imDAPs were produced according to the method described in CN201910169525.0. The imDAPs (P0) were seeded on DLL4/VTN-coated (1 μg/cm^2 for each) plates at a low density of 1×10^4 cells/cm^2, and cultured in the expansion medium (EM1, EM2, EM3, EM4). Medium was replaced every 3rd day until reaching 100% confluence (6 days) for cell collection. EM1 used in Example 9 contained the following components: 50% DMEM/F12, 50% Neurobasal™ medium, 1% (v/v) Glutamax, 1% (v/v) B27 (50×), […], 3 μM CHIR99021, 5 μM SB431542 and 10 μM Y27632. EM2 used in Example 9 contained the following components: 50% DMEM/F12, 50% Neurobasal™ medium, 1% (v/v) Glutamax, 1% (v/v) B27 (50×), 50 μg/ml ascorbic acid, […] LDN193189, 3 μM CHIR99021, 5 μM SB431542 and 10 μM Y27632. EM3 used in Example 9 contained the following components: 50% DMEM/F12, 50% Neurobasal™ medium, 1% (v/v) Glutamax, 1% (v/v) B27 (50×), 50 μg/mL ascorbic acid, […], 100 ng/ml FGF8b, 3 μM CHIR99021, 5 μM SB431542 and 10 μM Y27632. EM4 used in Example 9 contained the following components: 50% DMEM/F12, 50% Neurobasal™ medium, 1% (v/v) Glutamax, 1% (v/v) B27 (50×), 50 μg/ml ascorbic acid, 0.2 μM LDN193189, 10 ng/ml FGF2, 3 μM CHIR99021, 5 μM SB431542 and 10 μM Y27632. […]

imDAPs [2] = assay: imDAP maturation: cell morphology, adhesion and cell yield; details: Example 12; 1 μM IWR1 for at least 3 days; day 7; FIG. 7D
Description: imDAPs were produced according to the method described in CN201910169525.0, and expanded as described in Example 10. […] MM-H used in Example 11 contained the following components: Neurobasal™ medium, 1% (v/v) Glutamax, 0.5 mM Db-cAMP sodium salt, 200 μM ascorbic acid, 20 ng/ml BDNF, 20 ng/ml GDNF, 1 ng/ml TGF-β3, 10 μM DAPT, HhPLT (0.5%, 1%, 2%). MM-B used in Example 11 contained the following components: Neurobasal, 1% (v/v) Glutamax, 0.5 mM Db-cAMP sodium salt, 200 μM ascorbic acid, 20 ng/ml BDNF, 20 ng/ml GDNF, 1 ng/ml TGF-β3, 10 μM DAPT, 2% (v/v) B27 (50×) (as control). The above HhPLT was produced from hPLT as follows. The hPLT was centrifuged at 3000 g for 30 min at 4° C. to obtain the supernatant, which was heated to 56° C. for 30 min. The suspension was finally cooled down to 4° C. at least 5 min, and spun at 3000 g for 30 min at 4° C. to obtain the HhPLT supernatant. Aliquots were prepared and stored at −80° C. until use. The above Medium was changed every 3rd day. On day 7, the imDAPs at early maturation stage were dissociated enzymatically with 1× TrypLE, centrifuged at 250 g for 5 minutes.
imDAPs were produced according to the method described in CN201910169525.0, and expanded as described in Example 10. […] Medium was changed every 3rd day. On day 7, the imDAPs at early maturation stage were dissociated enzymatically with 1× TrypLE, centrifuged at 250 g for 5 minutes. Cells were collected for RT-qPCR analysis of EN1, LMX1A, FOXA2, NURR1, SOX6 and TH gene expression. The maturation medium used in Example 12 contained the following components: Neurobasal™ medium, 1% (v/v) Glutamax, 1% (v/v) HhPLT, 0.5 mM Db-cAMP sodium salt, 200 μM ascorbic acid, 20 ng/mL BDNF, 20 ng/mL GDNF, 1 ng/mL TGF-β3, 10 μM DAPT.
imDAPs were produced according to the method described in CN201910169525.0, and expanded as described in Example 10. […] Cells were collected and counted by Vi-cell cytometer. The cells were analyzed by RT-qPCR for EN1, LMX1A, FOXA2, NURR1, SOX6 and TH gene expression. […]

imDAPs [3] = assay: Flow cytometry (FACS) analysis of FOXA2 expression in expanded imDAPs; details: Example 8; VTN or DLL4/VTN coating, with or without SB431542; FIG. 4C
Description: • 1. Individualize and collect cells by either Accutase or TrypLE treatment. • 2. Wash cells with 1 ml PBS and pellet cells at 250×g for 15 sec. • 3. Remove supernatant, add ˜200 μl of 4% PFA, mix and fix for 10 min at RT. • 4. Pellet cells at 350×g for 5 min. • 5. Wash cells by 1 ml of FACS buffer and pellet cells at 350×g for 5 min. • 6. Remove supernatant, add 200 μl/tube of FACS buffer/0.1% TritonX, mix for 10 min at RT. • 7. Wash cells by 1 ml of FACS buffer and pellet cells at 350×g for 5 min. • 8. Remove supernatant, add 200 μl/tube of primary antibody diluted in FACS buffer, mix gently, and incubate for 30 min at RT. • 9. Wash cells by 1 ml of FACS buffer and pellet cells at 350×g for 5 min. • 10. Remove supernatant, and add 200 μl of secondary antibody diluted in FACS buffer, mix gently, and incubate for 30 min at RT. • 11. Wash cells by 1 ml of FACS buffer and pellet cells at 300×g for 5 min. • 12. Remove supernatant, add 200 μl of FACS buffer, and run samples on the flow cytometry. (2) qRT-PCR • 1. For qRT-PCR analysis of mRNA gene expression, RNA should be harvested from at least 2×10^6 cells. • 2. Harvest cells, add 350 μl of buffer RLT+1% (vol/vol) s-mercaptoethanol to the well, transfer the lysate to a 1.5 ml tube, and put it immediately on ice. • 3. Perform RNA extraction using the Tiangen Kit (DP430), and follow the manufacturer's protocol ‘Purification of total RNA from animal and human cells’. • 4. When the RNA extraction was completed, determine the RNA concentration using a Nanodrop instrument. • 5. Perform the first-strand cDNA synthesis reaction with 1 μg of RNA using the HiScript TM II Q RT SuperMIX for qPCR(+gDNA wiper) Kit (Vazyme, #R223-01) for RT-qPCR. Follow the manufacturer's ‘First-Strand cDNA Synthesis’ protocol. This reaction would yield a 20 μl product. • 6. Dilute the 10 μl cDNA product in 80 μl of nuclease-free water. • 7. Pipette the diluted cDNA product (1 μl), Sybr green master mix (5 μl, Transgen, #AQ131) and 0.95 μM reverse/forward primer mix (4 μl) into a 384-well PCR plate in triplicate, either manually or using an automated pipetting robot. The complete primer panel included the target genes and the housekeeping gene (RPL13A). In the analysis, also included a sample of undifferentiated hPSCs to determine the gene expression levels relative to the expression in hPSCs. • 8. Analyze the samples by running a quantitative PCR on the LightCycler 480 instrument using a 40× cycle two-step protocol with a 60° C., 60 sec annealing/elongation step and a 95° C., 30 sec denaturation step. The average CT values from the three technical replicates were used for calculations of relative gene expression using the ΔΔCT method. For each gene, calculate the FC of the differentiated samples relative to the undifferentiated control sample using the housekeeping gene for normalization. Next, calculate the average of the FC values on the basis of the housekeeping gene. (3) Immunocytochemical Analysis • 1. Cell fixation: Remove the medium from the cells and wash with PBS. Add 4% (wt/vol) PFA (e.g., 200 μl to a well in a 48-well plate) and incubate at room temperature (RT) for 15 min. after incubation, wash the cells three times in PBS. • 2. Blocking: Remove PBS from the wells and add blocking solution to the cells, add enough volume to cover the cells. Leave the cells in blocking solution for 1 h at RT. • 3. Primary antibodies incubation: Remove the blocking solution from the cells and add the primary antibody solutions (˜100 μl/cm^2). […]

Q: Cc1ccc2c(c1)C(=O)C1(O)CCN(c3ccccc3)C1=N2 (centres unmarked) [Blebbistatin] was tested. Which “imDAP expansion (cell morphology)” value (imDAPs [1]; Example 1, 5 μM Blebbistatin throughout culture vs no Blebbistatin or plating day only, VTN-coated plates, 5 days, FIG. 1A) did it give?
A: The value was “supported better imDAP expansion”.

Q: Which “cell morphology during maturation” value (imDAPs [2]) does the source give for O=C(Nc1cccc2cccnc12)c1ccc(N2C(=O)[C@@H]3[C@H](C2=O)[C@@H]2C=C[C@H]3C2)cc1 [IWR1] here?
A: Its value is “showed more obvious neural fibers”.

Q: NC(=O)c1ccc(-c2nc(-c3ccc4c(c3)OCO4)c(-c3ccccn3)[nH]2)cc1 [SB431542] was tested. Which “FOXA2 expression (percentage of Foxa2+ imDAPs)” value (imDAPs [3]) did it give?
A: Its value is “could improve FOXA2 expression”.

Q: With “FGF2: fibroblast growth factor, used at 10 ng/ml” as the compound, how does the “imDAP expansion (overall conclusion)” value (imDAPs [1]; Example 9) read?
A: Its value is “had no additional effects on imDAP expansion”.

Q: What about the “cell morphology of expanded imDAPs” value (imDAPs [1]; Example 9, 10 ng/ml FGF2 (EM4), DLL4/VTN-coated, day 5, FIG. 5A) of the same compound?
A: Its value is “some obvious heterogeneous cells were observed”.

From patent US12391919B2, “Culture medium, coating matrix and method for maturing midbrain dopaminergic progenitor cells” (NUWACELL BIOTECHNOLOGIES CO., LTD., priority 2022, dated 2025)
